Results published in patent US4657897A, “N^6 -substituted adenosines for treating pain” (Warner-Lambert Company, priority 1985, dated 1987).
Where two headings read alike, the source gives them in different places.

Legend:
[1] = molecular target: T1, adenosine A2 receptor (Rattus norvegicus, UniProt P30543); experiment: Adenosine Receptor Binding--A2 Receptor Affinity (RBA2), [3H]NECA binding, rat striatal membranes; design: species or system rat (mixed sex Sprague-Dawley; male Long-Evans); conditions: 4 nM [3H]NECA, 50 nM N6-cyclopentyladenosine, 25° C., 60 min
T1 construct: 5 mg original tissue weight of rat weight of rat striatal membranes; tissue Pel-Freez (Rogers, Ark.) for the brains; host or cells: rat striatum (Sprague-Dawley; Long-Evans gave essentially identical results), membranes
T1 sequence (P30543 whole entry): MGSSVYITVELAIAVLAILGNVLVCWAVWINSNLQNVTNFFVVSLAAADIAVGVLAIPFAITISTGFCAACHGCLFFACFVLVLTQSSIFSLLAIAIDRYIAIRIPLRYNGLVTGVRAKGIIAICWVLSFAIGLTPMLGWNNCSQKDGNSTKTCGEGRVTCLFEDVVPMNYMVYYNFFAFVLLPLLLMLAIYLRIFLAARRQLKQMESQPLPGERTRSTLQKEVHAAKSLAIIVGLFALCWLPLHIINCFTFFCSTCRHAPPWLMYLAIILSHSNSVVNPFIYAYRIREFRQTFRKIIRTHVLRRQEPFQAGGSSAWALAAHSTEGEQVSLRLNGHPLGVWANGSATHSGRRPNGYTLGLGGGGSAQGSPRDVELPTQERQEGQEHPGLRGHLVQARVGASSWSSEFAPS
Experimental: Adenosine Receptor Binding--A2 Receptor Affinity (RBA2)
Brains from 200-500 g mixed sex Sprague-Dawley rats were purchased from Pel-Freez (Rogers, Ark.). […] Brains were thawed and then kept on ice while the striata were dissected out. Striata were disrupted in 10 vol of ice-cold 50 mM Tris.HCl (pH 7.7 at 25° C., pH 8.26 at 5° C.) (Tris) for 30 seconds in a Polytron PT-10 (Brinkmann) at setting 5. The suspension was centrifuged at 50,000 xg for ten minutes, the supernatant discarded, the pellet resuspended in 10 vol ice-cold Tris as above, recentrifuged, resuspended at 1 g/5 ml, and stored in plastic vials at -70° C. […] When needed, tissue was thawed at room temperature, disrupted in a Polytron, and kept on ice until used.
Test compounds were dissolved at 10 mM in dimethylsulfoxide on the same day as the experiment, and diluted in dimethylsulfoxide to 100× the final incubation concentration. […] [^3 H]NECA was diluted to 40 nM in Tris. […] After all additions, the rack of tubes was vortexed, and the tubes were then incubated for 60 min at 25° C. in a shaking water bath. The rack of tubes was vortexed an additional time halfway through the incubation.
Incubations were terminated by filtration through 2.4 cm GF/B filters under reduced pressure. Each tube was filtered as follows: the contents of the tube were poured onto the filter, 4 ml of ice-cold Tris were added to the tube and the contents poured onto the filter, and the filter was washed twice with 4 ml of ice-cold Tris. The filtration was complete in about twelve seconds. Filters were put in scintillation vials, 8 ml of Formula 947 scintillation fluid added, and the vials left overnight, shaken, and counted in a liquid scintillation counter at 40% efficiency.
The IC50 was calculated by weighted nonlinear least squares curve-fitting to the mass-action equation. [formula] where Y is cpm bound
T is cpm total binding without drug
S is cpm specific binding without drug
D is the concentration of drug
K is the IC50 of the drug
Weighting factors were calculated under the assumption that the standard deviation was proportional to the predicted value of Y. Nonspecific binding was treated as a very large (infinite) concentration of drug in the computer analysis.

[2] = Mouse Activity and Screen Test (MAST), screen test failure (ST); format: in vivo, mouse (Swiss-Webster, male); conditions: for Inhibition of screen test failure: percent of mice falling off the screen; for minimal effective dose: Mus musculus, ip, read-out: MAST ST LAD
Experimental: Treatments are administered intraperitoneally one hour prior to testing. […] Compounds are dissolved or suspended in 0.2% Methocel. Control animals are injected with Methocel.
The compounds are identified in the Examples.

[3] = molecular target: T2, adenosine A1 receptor (Rattus norvegicus, UniProt P25099); experiment: Adenosine Receptor Binding--A1 Receptor Affinity (RBA1), [3H]-CHA binding, rat whole brain membranes; design: species or system rat (male Long Evans); conditions: 1.0 nM [3H]-CHA, 25° C., 1 h
T2 construct: Whole brain minus cerebellum and brainstem from male Long Evans rats; from tissue; host or cells: rat whole brain minus cerebellum and brainstem (male Long Evans), membranes
T2 sequence (P25099 1-326): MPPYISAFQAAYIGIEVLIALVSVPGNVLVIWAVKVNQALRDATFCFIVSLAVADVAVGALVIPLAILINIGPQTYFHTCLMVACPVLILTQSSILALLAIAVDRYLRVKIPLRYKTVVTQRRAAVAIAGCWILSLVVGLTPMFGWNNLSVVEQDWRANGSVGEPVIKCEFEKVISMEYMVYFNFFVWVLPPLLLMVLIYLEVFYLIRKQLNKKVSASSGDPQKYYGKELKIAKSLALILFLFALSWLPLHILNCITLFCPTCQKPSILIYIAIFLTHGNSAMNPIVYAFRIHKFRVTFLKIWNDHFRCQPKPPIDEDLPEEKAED
Experimental: Adenosine Receptor Binding--A1 Receptor Affinity (RBA1)
Whole brain minus cerebellum and brainstem from male Long Evans rats (150-200 g) was homogenized in 30 volumes of ice-cold 0.05M Tris-HCl buffer pH 7.7 using a Brinkman Polytron PT-10, (setting number 6 for 20 seconds) and centrifuged for ten minutes at 20,000×g (Sorvall RC-2), 4° C. The supernatant was discarded, and the pellet was resuspended and centrifuged as before. The pellet was resuspended in 20 ml Tris-HCl buffer containing two International Units/ml of adenosine deaminase (Sigma type III from calf intestinal mucosa), incubated at 37° C. for 30 minutes, then subsequently at 0° C. for ten minutes. The homogenate was again centrifuged, and the final pellet was resuspended in ice-cold 0.05M Tris-HCl buffer pH 7.7 to a concentration of 20 mg/ml original wet tissue weight and used immediately.
Tissue homogenate (10 mg/ml) was incubated in 0.05M Tris-HCl buffer pH 7.7 containing 1.0 nM [^3 H]-N^6 -cyclohexyladenosine[^3 H]-CHA) with or without test agents in triplicate for one hour at 25° C. Incubation volume was 2 ml. Unbound [^3 H]-CHA was separated by rapid filtration under reduced pressure through Whatman glass fiber (GF/B) filters. The filters were rinsed three times with 5 ml of ice cold 0.05M Tris-HCl buffer pH 7.7. The radio-labeled ligand retained on the filter was measured by liquid scintillation spectrophotometry after shaking the filters for one hour or longer on a mechanical shaker in 10 ml of Beckman Ready-Solv HP scintillation cocktail.
Nonspecific binding was defined as the binding which occurred in the presence of 1 mM theophylline. The concentration of test agent which inhibited 50% of the specific binding (IC50) was determined by nonlinear computer curve fit. The Scatchard plot was calculated by linear regression of the line obtained by plotting the amount of radioligand bound (pmoles/gram of tissue) [formula] Since the amount of radioligand bound was a small fraction of the total amount added, free radioligand was defined as the concentration (nM) of radioligand added to the incubation mixture. The Hill coefficient was calculated by linear regression of the line obtained by plotting the log of the bound radioligand vs the log of the [formula] The maximal number of binding sites (Bmax) was calculated from the Scatchard plot.

[4] = lowest dose at which an A rating is achieved, screen test, intraperitoneal, 1 h prior to testing

Structure (SMILES) | IC50 [1] | IC50 [3] | Inhibition of screen test failure ([2]; 10 mg/kg intraperitoneal) | Inhibition of screen test failure ([2]; 30 mg/kg intraperitoneal) | Inhibition of screen test failure ([2]; 100 mg/kg intraperitoneal) | minimal effective dose [2, 4] | minimal effective dose ([2]; 1 h)
Nc1nc(NCC(c2ccccc2)c2ccccc2)c2ncn([C@@H]3O[C@H](CO)[C@@H](O)[C@H]3O)c2n1 [Example 4, N^6-(2,2-Diphenylethyl)-2-aminoadenosine] | 275 nM | 89 nM | 0% | 11% | 22% | > 100 mg/kg | –
OC[C@H]1O[C@@H](n2cnc3c(NC(c4ccccc4)c4ccccc4)ncnc32)[C@H](O)[C@@H]1O [Example 5, N^6 -Diphenylmethyladenosine] | 5650 nM | 846 nM | – | – | – | > 100 mg/kg | –
OC[C@H]1O[C@@H](n2cnc3c(NCCCC(c4ccccc4)c4ccccc4)ncnc32)[C@H](O)[C@@H]1O [Example 6, N^6-(4,4-Diphenylbutyl)adenosine] | 9520 nM | 518 nM | – | – | – | > 100 mg/kg | –
OC[C@H]1O[C@@H](n2cnc3c(NCCCCC(c4ccccc4)c4ccccc4)ncnc32)[C@H](O)[C@@H]1O [Example 7, N^6-(5,5-Diphenylpentyl)adenosine] | 3290 nM | 147 nM | – | – | – | > 100 mg/kg | –
OC[C@H]1O[C@@H](n2cnc3c(NCC(c4ccccc4)c4ccc(F)cc4)nc(Cl)nc32)[C@H](O)[C@@H]1O (stereo partly drawn) [Example 11, N^6-(2-(4-Fluorophenyl)-2-phenylethyl)-2-chloroadenosine] | 210 nM | 69 nM | – | – | – | > 100 mg/kg | –
Nc1nc(NCC(c2ccccc2)c2ccc(F)cc2)c2ncn([C@@H]3O[C@H](CO)[C@@H](O)[C@H]3O)c2n1 (stereo partly drawn) [Example 12, N^6-(2-(4-Fluorophenyl)-2-phenylethyl)-2-amino adenosine] | 303 nM | 94 nM | – | – | – | > 100 mg/kg | –
OC[C@H]1O[C@@H](n2cnc3c(NCC(c4ccccc4)c4cccc(Cl)c4)ncnc32)[C@H](O)[C@@H]1O (stereo partly drawn) [Example 14, N^6-(2-(3-Chlorophenyl)-2-phenylethyl)adenosine] | – | – | – | – | – | > 100 mg/kg | –
Nc1nc(NCC(c2ccccc2)c2ccc(Cl)cc2)c2ncn([C@@H]3O[C@H](CO)[C@@H](O)[C@H]3O)c2n1 (stereo partly drawn) [Example 16] | 319 nM | 223 nM | – | – | – | > 100 mg/kg | –
OC[C@H]1O[C@@H](n2cnc3c(NCC(c4ccc(Cl)cc4)c4ccc(Cl)cc4)ncnc32)[C@H](O)[C@@H]1O [Example 17, N^6-(2,2-Di(4-chlorophenyl)ethyl)adenosine] | 713 nM | 512 nM | – | – | – | > 100 mg/kg | –
Nc1nc(NCC(c2ccc(Cl)cc2)c2ccc(Cl)cc2)c2ncn([C@@H]3O[C@H](CO)[C@@H](O)[C@H]3O)c2n1 [Example 18] | 2120 nM | 1920 nM | – | – | – | – | –
O=[N+]([O-])c1ccc(C(CNc2ncnc3c2ncn3[C@@H]2O[C@H](CO)[C@@H](O)[C@H]2O)c2ccc([N+](=O)[O-])cc2)cc1 [Example 20] | – | – | – | – | – | – | > 100 mg/kg
CC(CNc1nc(N)nc2c1ncn2[C@@H]1O[C@H](CO)[C@@H](O)[C@H]1O)(c1ccccc1)c1ccccc1 [Example 21, N^6-(2,2-Diphenylpropyl)-2-aminoadenosine] | 470 nM | 285 nM | – | – | – | > 100 mg/kg | –

Continued by falling IC50 [1], values first:

IC50 [1] | IC50 [3] | Structure (SMILES) | Inhibition of screen test failure ([2]; 10 mg/kg intraperitoneal) | Inhibition of screen test failure ([2]; 30 mg/kg intraperitoneal) | Inhibition of screen test failure ([2]; 100 mg/kg intraperitoneal) | minimal effective dose [2, 4] | minimal effective dose ([2]; 1 h)
139 nM | 67 nM | OC[C@H]1O[C@@H](n2cnc3c(NCC(c4ccccc4)c4ccccc4)nc(Cl)nc32)[C@H](O)[C@@H]1O [Example 3, N^6-(2,2-Diphenylethyl)-2-chloroadenosine] | 0% | 11% | 44% | > 100 mg/kg | –
94 nM | 16 nM | OC[C@H]1O[C@@H](n2cnc3c(NCC(c4ccc(F)cc4)c4ccc(F)cc4)ncnc32)[C@H](O)[C@@H]1O [Example 13, N^6-(2,2-Di-(4-fluorophenyl)ethyl)adenosine] | – | – | – | > 100 mg/kg | –
94 nM | 12 nM | OC[C@H]1O[C@@H](n2cnc3c(NCC(O)(c4ccccc4)c4ccccc4)ncnc32)[C@H](O)[C@@H]1O [Example 22, N^6-(2,2-Diphenyl-2-hydroxyethyl)adenosine] | – | – | – | 100 mg/kg | –
90 nM | 27 nM | OC[C@H]1O[C@@H](n2cnc3c(NCC(c4ccccc4)c4ccc(Cl)cc4)ncnc32)[C@H](O)[C@@H]1O (stereo partly drawn) [Example 15, N^6-(2-(4-Chlorophenyl)-2-phenylethyl)adenosine] | – | – | – | > 100 mg/kg | –
71 nM | 14 nM | OC[C@H]1O[C@@H](n2cnc3c(NCC(c4ccccc4)c4ccc(F)cc4)ncnc32)[C@H](O)[C@@H]1O (stereo partly drawn) [Example 10, N^6-(2-(4-Fluorophenyl)-2-phenylethyl)adenosine] | – | – | – | > 100 mg/kg | –
56 nM | 21 nM | COc1ccc(C(CNc2ncnc3c2ncn3[C@@H]2O[C@H](CO)[C@@H](O)[C@H]2O)c2ccccc2)cc1 (stereo partly drawn) [Example 19, N^6-(2-(4-Methoxyphenyl)-2-phenylethyl)adenosine] | – | – | – | 30 mg/kg | –
41 nM | 66 nM | CC(CNc1ncnc2c1ncn2[C@@H]1O[C@H](CO)[C@@H](O)[C@H]1O)(c1ccccc1)c1ccccc1 [Example 8, N^6-(2,2-Diphenylpropyl)adenosine] | – | – | – | > 100 mg/kg | –
~20 nM | – | O=P(O)(O)OC[C@H]1O[C@@H](n2cnc3c(NCC(c4ccccc4)c4ccccc4)ncnc32)[C@H](O)[C@@H]1O [Example 28, N^6-(2,2-Diphenylethyl)adenosine-5'-phosphate] | – | – | – | > 30 mg/kg | –
17 nM | 13 nM | Cc1cccc(C(CNc2ncnc3c2ncn3[C@@H]2O[C@H](CO)[C@@H](O)[C@H]2O)c2ccccc2)c1 (stereo partly drawn) [Example 9, N^6-(2-(3-Methylphenyl)-2-phenylethyl)adenosine] | – | – | – | 100 mg/kg | –
